The source made the active and inactive calls. The calls are words filed in the database; no cut-off is given here.
Experiments:
[1] = Plasma concentration in Wistar rat lambda carrageenan-induced pleurisy model at 20 mg/kg, ip pretreated for 30 mins followed by lambda carrageenan-challenge measured after 4 hrs by SPE-HPLC analysis; assay type: ADME, organism-based; parameters: dose 20 mg/kg, route intraperitoneal
[2] = Plasma concentration in Wistar rat lambda carrageenan-induced pleurisy model at 10 mg/kg, ip pretreated for 30 mins followed by lambda carrageenan-challenge measured after 4 hrs by SPE-HPLC analysis; assay type: ADME, organism-based; parameters: dose 10 mg/kg, route intraperitoneal
[3] = Plasma concentration in Wistar rat lambda carrageenan-induced pleurisy model at 5 mg/kg, ip pretreated for 30 mins followed by lambda carrageenan-challenge measured after 4 hrs by SPE-HPLC analysis; assay type: ADME, organism-based; parameters: dose 5 mg/kg, route intraperitoneal
Rattus norvegicus [4] = assay: Antiinflammatory activity in Wistar rat lambda carrageenan-induced pleurisy model assessed as decrease in number of leukocytes in pleural space at 20 mg/kg, ip pretreated for 30 mins followed by lambda carrageenan-challenge measured after 4 hrs relative to control; assay type: functional; parameters: scale not given: the % may be the effect or the level left
Rattus norvegicus [5] = assay: Antiinflammatory activity in Wistar rat lambda carrageenan-induced pleurisy model assessed as decrease in number of leukocytes in pleural space at 10 mg/kg, ip pretreated for 30 mins followed by lambda carrageenan-challenge measured after 4 hrs relative to control; assay type: functional; parameters: scale not given: the % may be the effect or the level left
Rattus norvegicus [6] = assay: Antiinflammatory activity in Wistar rat lambda carrageenan-induced pleurisy model assessed as decrease in number of leukocytes in pleural space at 5 mg/kg, ip pretreated for 30 mins followed by lambda carrageenan-challenge measured after 4 hrs relative to control; assay type: functional; parameters: scale not given: the % may be the effect or the level left
Rattus norvegicus [7] = assay: Antiinflammatory activity in Wistar rat lambda carrageenan-induced pleurisy model assessed as decrease in exudate volume at 20 mg/kg, ip pretreated for 30 mins followed by lambda carrageenan-challenge measured after 4 hrs relative to control; assay type: functional; conditions: route intraperitoneal
Rattus norvegicus [8] = assay: Antiinflammatory activity in Wistar rat lambda carrageenan-induced pleurisy model assessed as decrease in exudate volume at 10 mg/kg, ip pretreated for 30 mins followed by lambda carrageenan-challenge measured after 4 hrs relative to control; assay type: functional; conditions: route intraperitoneal
Rattus norvegicus [9] = assay: Antiinflammatory activity in Wistar rat lambda carrageenan-induced pleurisy model assessed as decrease in exudate volume at 5 mg/kg, ip pretreated for 30 mins followed by lambda carrageenan-challenge measured after 4 hrs relative to control; assay type: functional; conditions: route intraperitoneal
[10] = biological target: T1, Prostaglandin G/H synthase 2 (Homo sapiens, UniProt P35354); parameters: species or system Blood
T1 sequence (P35354 whole entry): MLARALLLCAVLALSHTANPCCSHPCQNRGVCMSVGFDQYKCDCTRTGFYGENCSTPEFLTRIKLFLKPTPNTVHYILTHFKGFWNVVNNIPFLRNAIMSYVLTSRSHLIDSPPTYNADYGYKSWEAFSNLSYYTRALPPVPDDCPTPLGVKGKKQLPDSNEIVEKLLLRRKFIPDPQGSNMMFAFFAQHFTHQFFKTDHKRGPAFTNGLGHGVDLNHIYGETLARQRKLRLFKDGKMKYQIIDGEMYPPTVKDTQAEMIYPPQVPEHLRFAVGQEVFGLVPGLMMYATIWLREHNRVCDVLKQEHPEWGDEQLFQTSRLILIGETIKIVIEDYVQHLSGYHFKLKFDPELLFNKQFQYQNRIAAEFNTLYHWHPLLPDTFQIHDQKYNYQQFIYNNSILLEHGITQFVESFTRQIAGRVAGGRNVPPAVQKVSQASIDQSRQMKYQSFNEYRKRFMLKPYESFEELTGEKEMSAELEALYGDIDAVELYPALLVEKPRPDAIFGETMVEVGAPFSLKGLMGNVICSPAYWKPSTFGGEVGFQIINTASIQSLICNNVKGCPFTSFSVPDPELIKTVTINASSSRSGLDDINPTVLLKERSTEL

[11] = biological target: Prostaglandin G/H synthase 1 (Homo sapiens, UniProt P23219); parameters: species or system Blood
Prostaglandin G/H synthase 1, sequence (P23219 whole entry): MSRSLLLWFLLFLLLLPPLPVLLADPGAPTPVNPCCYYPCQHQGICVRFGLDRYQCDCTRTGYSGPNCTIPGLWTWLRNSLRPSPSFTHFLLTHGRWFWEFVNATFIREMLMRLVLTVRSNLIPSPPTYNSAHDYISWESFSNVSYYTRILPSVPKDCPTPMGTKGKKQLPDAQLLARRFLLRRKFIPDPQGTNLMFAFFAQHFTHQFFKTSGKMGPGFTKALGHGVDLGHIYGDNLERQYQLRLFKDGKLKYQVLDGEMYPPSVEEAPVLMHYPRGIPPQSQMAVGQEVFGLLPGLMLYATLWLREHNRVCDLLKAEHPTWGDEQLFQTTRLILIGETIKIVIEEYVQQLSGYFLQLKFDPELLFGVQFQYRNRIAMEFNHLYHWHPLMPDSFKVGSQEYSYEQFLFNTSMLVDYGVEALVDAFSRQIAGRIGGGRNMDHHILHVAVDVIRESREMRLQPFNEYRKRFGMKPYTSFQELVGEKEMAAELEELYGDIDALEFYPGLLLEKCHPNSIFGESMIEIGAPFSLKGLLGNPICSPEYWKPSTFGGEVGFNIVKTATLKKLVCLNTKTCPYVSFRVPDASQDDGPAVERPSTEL

[12] = Retention time of the compound by chromatographic analysis; assay type: physicochemical

SMILES	concentration at 4 h [1] [ng/mL]	concentration at 4 h [2] [ng/mL]	concentration at 4 h [3] [ng/mL]	Activity (Rattus norvegicus [4]; route intraperitoneal) [%]	Activity (Rattus norvegicus [5]; route intraperitoneal) [%]	IC50 [10] [nM]	IC50 [11] [nM]	further results
O=S(=O)(Nc1ccncc1Nc1ccc(F)c(Br)c1)C(F)(F)F	59100	34100	11400	69.78	41.22	2270	1350	Activity (Rattus norvegicus [6]; route intraperitoneal): 11.13%; inhibition in vivo at 20 mg/kg (Rattus norvegicus [7]): 66.5%; inhibition in vivo at 10 mg/kg (Rattus norvegicus [8]): 42.6%; inhibition in vivo at 5 mg/kg (Rattus norvegicus [9]): 21.9%
O=S(=O)(C1CC1)N(c1ccncc1Nc1ccccc1)S(=O)(=O)C1CC1	–	–	–	–	–	56800	19600	–
O=S(=O)(Nc1ccncc1Nc1cccc(I)c1)C(F)(F)F	–	–	–	–	–	260	1930	–
O=S(=O)(Nc1ccncc1Nc1ccc(Cl)cc1)C(F)(F)F	27300	9490	4610	72.47	54.44	–	–	Activity (Rattus norvegicus [6]; route intraperitoneal): 44.15%
Cc1cc(Nc2cnccc2NS(=O)(=O)C(F)(F)F)ccc1Br	–	–	–	–	–	300	2320	–
O=S(=O)(Nc1ccncc1Nc1ccc(F)cc1)C(F)(F)F	–	–	–	–	–	300	270	–
O=S(=O)(Nc1ccncc1Nc1cccc(Br)c1)C(F)(F)F	820	430	300	28.52	27.07	–	–	Retention_time [12]: 13.65 min; Activity (Rattus norvegicus [6]; route intraperitoneal): 27.1%
O=S(=O)(Nc1ccncc1Nc1ccc(O)c(Br)c1)C(F)(F)F	–	–	–	–	–	> 100000	4210	Retention_time [12]: 10.34 min
O=S(=O)(Nc1ccncc1Nc1cccc(Cl)c1)C(F)(F)F	1400	680	560	16.41	–	–	–	Activity (Rattus norvegicus [5]): inactive; Activity (Rattus norvegicus [6]): inactive
CS(=O)(=O)Nc1ccc([N+](=O)[O-])cc1Oc1ccccc1 [NIMESULIDE]	75200	41300	17000	72.93	52.05	–	–	Activity (Rattus norvegicus [6]; route intraperitoneal): 23.08%; inhibition in vivo at 10 mg/kg (Rattus norvegicus [8]): 48.4%; inhibition in vivo at 5 mg/kg (Rattus norvegicus [9]): 31.1%
Cc1ccc(Nc2cnccc2NS(=O)(=O)C(F)(F)F)cc1Cl	–	–	–	–	–	1960	1470	–
Cc1ccc(Nc2cnccc2NS(=O)(=O)C(F)(F)F)cc1C	–	–	–	–	–	550	710	–
O=S(=O)(Nc1ccncc1Nc1ccc(F)c(Cl)c1)C(F)(F)F	54600	30000	13000	64.71	48.23	1570	1740	Activity (Rattus norvegicus [6]; route intraperitoneal): 14.74%; inhibition in vivo at 20 mg/kg (Rattus norvegicus [7]): 73.5%; inhibition in vivo at 10 mg/kg (Rattus norvegicus [8]): 67.5%; inhibition in vivo at 5 mg/kg (Rattus norvegicus [9]): 36.6%
Cc1ccc(Nc2cnccc2NS(C)(=O)=O)cc1C	–	–	–	–	–	30700	3280	–
CS(=O)(=O)Nc1ccncc1Nc1cccc(Cl)c1	1860	690	260	–	–	–	–	Activity (Rattus norvegicus [4]): inactive; Activity (Rattus norvegicus [5]): inactive; Activity (Rattus norvegicus [6]): inactive
O=S(=O)(Nc1ccncc1Nc1ccccc1)C1CC1	–	–	–	–	–	35100	3610	–
O=S(=O)(Nc1ccncc1Nc1ccc(O)cc1)C(F)(F)F	–	–	–	–	–	> 100000	18100	–
Cc1ccc(-c2cc(C(F)(F)F)nn2-c2ccc(S(N)(=O)=O)cc2)cc1 [CELECOXIB]	2680	1130	620	28.87	23.05	–	–	Activity (Rattus norvegicus [6]; route intraperitoneal): 24.02%; inhibition in vivo at 20 mg/kg (Rattus norvegicus [7]): 42.1%; inhibition in vivo at 10 mg/kg (Rattus norvegicus [8]): 27.3%; inhibition in vivo at 5 mg/kg (Rattus norvegicus [9]): 15.7%
CS(=O)(=O)Nc1ccncc1Nc1cccc(F)c1	–	–	–	–	–	10000	1370	–
CCCC(C)C1(CC)C(=O)NC(=O)NC1=O (centres undefined) [PENTOBARBITAL]	–	–	–	–	–	–	–	Retention_time [12]: 11.71 min
O=S(=O)(Nc1ccncc1Nc1cccc(F)c1)C(F)(F)F	–	–	–	–	–	240	440	–
N#Cc1cccc(Nc2cnccc2NS(=O)(=O)C(F)(F)F)c1	–	–	–	–	–	36200	6650	–
CS(=O)(=O)Nc1ccncc1Nc1ccc(F)cc1	–	–	–	–	–	20700	2090	–
Cc1ccc(Nc2cnccc2NS(=O)(=O)C(F)(F)F)cc1Br	920	180	170	44.06	26.24	90	1400	Activity (Rattus norvegicus [6]): inactive; inhibition in vivo at 20 mg/kg (Rattus norvegicus [7]): 71%; inhibition in vivo at 10 mg/kg (Rattus norvegicus [8]): 57.1%; inhibition in vivo at 5 mg/kg (Rattus norvegicus [9]): 19.4%
Cc1cc(C)cc(Nc2cnccc2NS(C)(=O)=O)c1	–	–	–	–	–	> 100000	14900	–
O=S(=O)(Nc1ccncc1Nc1ccccc1)C(F)(F)F	3620	1540	720	51.7	34.83	–	–	Activity (Rattus norvegicus [6]; route intraperitoneal): 24.82%; inhibition in vivo at 20 mg/kg (Rattus norvegicus [7]): 72.2%; inhibition in vivo at 10 mg/kg (Rattus norvegicus [8]): 55.7%; inhibition in vivo at 5 mg/kg (Rattus norvegicus [9]): 25.4%
Cc1cccc(Nc2cnccc2NS(=O)(=O)C(F)(F)F)c1	410	200	100	50.18	24.98	–	–	Activity (Rattus norvegicus [6]; route intraperitoneal): 17.07%
Cc1cc(C)cc(Nc2cnccc2NS(=O)(=O)C(F)(F)F)c1	–	–	–	–	–	1040	4110	–

From ChEMBL document CHEMBL3112465 (Eur J Med Chem, 2014)
